Data set [1] in a line: log P by HPLC on reversed phase columns (EEC directive 79/831 Annex V.A8). It counts as physicochemical. The following applies: method [a]: LC-MS at pH 2.7, 0.1% formic acid in water / acetonitrile gradient, Table 1 compounds; for chromatographic logP: reversed phase HPLC column. How it is done: Calibration was done with not branched alkan2-ones (with 3 to 16 carbon atoms) with known log P-values (measurement of log P values using retention times with linear interpolation between successive alkanones). lambda-maX-values were determined using UV-spectra from 200 nm to 400 nm and the peak values of the chromatographic signals.

Data set [2] deals with Phytophthora infestans. It counts as in vivo. As to conditions: 500 ppm active ingredient, preventive spray on young tomato plants, evaluated 5 days after inoculation.
Data set [3] relates to Septoria tritici. The data set is described as follows: In vivo preventive test on Septoria tritici (leaf spot on wheat). As to conditions: 500 ppm active ingredient, preventive spray on young wheat plants, evaluated 24 days after inoculation. As for the experimental part: The tested active ingredients are prepared by homogenization in a mixture of acetone/Dimethyl sulfoxide/tween®, and then diluted with water to obtain the desired active material concentration.
The young plants of wheat are treated by spraying the active ingredient prepared as described above. Control plants are treated only with an aqueous solution of acetone/Dimethyl sulfoxide/tween®.
After 24 hours, the plants are contaminated by spraying the leaves with an aqueous suspension of Septoria tritici spores. The contaminated wheat plants are incubated for 72 hours at 18° C. and at 100% relative humidity and then for 21 days at 20° C. and at 90% relative humidity.
The test is evaluated 24 days after the inoculation. 0% means an efficacy which corresponds to that of the control plants while an efficacy of 100% means that no disease is observed.

Data set [4] relates to Plasmopara viticola. Put plainly: Plasmopara test (grapevines)/preventive. The data set is classed as in vivo. The following applies: 10 ppm active ingredient, preventive spray on young grapevine plants, evaluated 6 days after inoculation. How it is done:
To produce a suitable preparation of active compound, 1 part by weight of active compound is mixed with the stated amounts of solvent and emulsifier, and the concentrate is diluted with water to the desired concentration.
To test for preventive activity, young plants are sprayed with the preparation of active compound at the stated rate of application. After the spray coating has dried on, the plants are inoculated with an aqueous spore suspension of Plasmopara viticola and then remain for 1 day in an incubation cabinet at approximately 20° C. and a relative atmospheric humidity of 100%. The plant is subsequently placed for 4 days in a greenhouse at approximately 21° C. and a relative atmospheric humidity of approximately 90%. The plants are then misted and placed for 1 day in an incubation cabinet.
The test is evaluated 6 days after the inoculation. 0% means an efficacy which corresponds to that of the untreated control, while an efficacy of 100% means that no disease is observed.

For the compound `Cn1oc(=O)nc1/C(=N\OCc1cccc(C#CC2CC2)n1)c1ccccc1` [Example 6], in data set [1], the LogP is 3.02^[a].

For the compound `CC(=NOCc1ccccc1)Nc1cccc(CO/N=C(/c2ccccc2)c2noc(=O)n2C)n1` [Example 9], the LogP in data set [1] was 3.73^[a]. Moreover, the “% efficacy” value in data set [2] amounted to 100%.

In the case of `Cn1c(/C(=N\OCc2cccc(C#CC3CC3)n2)c2ccccc2)noc1=O` [Example 13], the LogP in data set [1] was 3.65^[a].

As for `Cn1c(C(=NOCc2csc(C#CC3CC3)n2)c2ccccc2)noc1=O` [Example 17], in data set [1], the LogP is 3.76^[a]. Further, the “% efficacy” value in data set [2] is listed as 99%.

In the case of `Cn1c(/C(=N\OCc2cccc(C#Cc3ccccc3)n2)c2ccccc2)noc1=O` [Example 15], the LogP in data set [1] was 4.26^[a]. For the same compound, in data set [2], the “% efficacy” value is 80%.

For `CCCCON=C(C)Nc1cccc(CO/N=C(/c2ccccc2)c2noc(=O)n2C)n1` [Example 7], the LogP in data set [1] was 3.69^[a]. For the same compound, the “% efficacy” value in data set [2] was found to be 100%.

Regarding `Cn1oc(=O)nc1C(=NOCc1csc(C=CCc2ccccc2)n1)c1ccccc1` [Example 20], the LogP in data set [1] was 3.85^[a].

For the compound `Cn1oc(=O)nc1C(=NOCc1csc(C=CC2CCCCC2)n1)c1ccccc1` [Example 22], the “% efficacy” value is reported as 71% in data set [3] and 95% in data set [2]. The LogP in data set [1] is 4.64^[a].

Take `Cn1c(C(=NOCc2csc(C#CCc3ccccc3)n2)c2ccccc2)noc1=O` [Example 19]: the figures for the “% efficacy” value in data set [3] and in data set [2] were 79% and 90%, respectively. In data set [1], the LogP is 4.37^[a].

Turning to `Cn1oc(=O)nc1/C(=N\OCc1csc(C#CC2CCCCC2)n1)c1ccccc1` [Example 14], the LogP in data set [1] was 4.44^[a].

Take `CCCCON=C(C)Nc1cccc(CO/N=C(/c2ccccc2)c2nc(=O)on2C)n1` [Example 5]: the LogP in data set [1] is 3.35^[a].

In the case of `Cn1c(C(=NOCc2cccc(C=Cc3ccccc3)n2)c2ccccc2)noc1=O` [Example 23], the “% efficacy” value in data set [3] stood at 97%; in data set [2] it was 92%. Also, in data set [1], the LogP is 4.37^[a].

Regarding `CC(=NO)Nc1cccc(CO/N=C(/c2ccccc2)c2noc(=O)n2C)n1` [Example 2, N′-hydroxy-N-{6-[({[(Z)-(4-methyl-5-oxo-4,5-dihydro-1,2,4-oxadiazol-3-yl)(phenyl)methylene]amino}oxy)methyl]pyridin-2-yl}ethanimidamide], the “% efficacy” value in data set [3] worked out at 71%; in data set [2] it was 100%. For the same compound, the chromatographic logP (in general, lipophilicity estimated from chromatographic retention) in data set [1] is 1.86.

For the compound `CC(=NOCc1ccccc1)Nc1cccc(CO/N=C(/c2ccccc2)c2nc(=O)on2C)n1` [Example 8], the “% efficacy” value in data set [4] worked out at 92%; in data set [2], 100%. Moreover, the LogP in data set [1] was 3.09^[a].

Consider `Cn1oc(=O)nc1/C(=N\OCc1cccc(C#CC(C)(C)C)n1)c1ccccc1` [Example 11], for which the “% efficacy” value in data set [4] and in data set [2] was 100% throughout. Besides, the LogP in data set [1] was 3.72^[a].

For the compound `CCCCC#Cc1cccc(CO/N=C(/c2ccccc2)c2nc(=O)on2C)n1` [Example 10], the “% efficacy” value amounted to 96% in data set [4] and 100% in data set [2]. For the same compound, the LogP in data set [1] was 3.81^[a].

The compound `Cn1oc(=O)nc1/C(=N\OCc1cccc(C#Cc2ccccc2)n1)c1ccccc1` [Example 4, 2-methyl-3-[(Z)-phenyl({[6-(phenylethynyl)pyridin-2-yl]methoxy}imino)methyl]-1,2,4-oxadiazol-5(2H)-one] gave a chromatographic logP in data set [1] of 3.63. Further, the “% efficacy” value in data set [2] worked out at 98%.

As for `Cn1oc(=O)nc1C(=NOCc1csc(C#CCc2ccccc2)n1)c1ccccc1` [Example 18], in data set [1], the LogP is 3.74^[a]. In addition, the “% efficacy” value in data set [2] worked out at 98%.

In the case of `Cn1oc(=O)nc1/C(=N\OCc1csc(C#CC2CC2)n1)c1ccccc1` [Example 12, 3-[(Z)-({[2-(cyclopropylethynyl)-1,3-thiazol-4-yl]methoxy}imino)(phenyl)methyl]-2-methyl-1,2,4-oxadiazol-5(2H)-one], the “% efficacy” value in data set [4] turned out to be 73%; in data set [2] it was 100%. The same compound gave a chromatographic logP in data set [1] of 3.13.

As for `CC(=NO)Nc1cccc(CO/N=C(/c2ccccc2)c2nc(=O)on2C)n1` [Example 1], the LogP in data set [1] was 1.29^[a]. For the same compound, the “% efficacy” value in data set [2] is on record as 99%.

For the compound `CC(=NOCC1CC1)Nc1cccc(CO/N=C(/c2ccccc2)c2noc(=O)n2C)n1` [Example 3, N′-(cyclopropylmethoxy)-N-{6-[({[(Z)-(4-methyl-5-oxo-4,5-dihydro-1,2,4-oxadiazol-3-yl)(phenyl)methylene]amino}oxy)methyl]pyridin-2-yl}ethanimidamide], the chromatographic logP in data set [1] amounted to 3.39. Moreover, the “% efficacy” value in data set [2] stood at 99%.

On to `Cn1c(/C(=N\OCc2csc(C#CC3CCCCC3)n2)c2ccccc2)noc1=O` [Example 16], for which the LogP in data set [1] was 5.08^[a]. Also, the “% efficacy” value in data set [2] is listed as 78%.

Regarding `Cn1c(C(=NOCc2cccc(C=CC3CC3)n2)c2ccccc2)noc1=O` [Example 21], in data set [1], the LogP is 3.48^[a].

Source of the values: patent publication US9375010B2 (priority 2013, dated 2016).
